Assay results taken from patent publication US20200361871A1 (Enterprise Therapeutics Ltd., priority 2018, published 2020).

Biological target: human TMEM16A (TMEM16Aabc variant) (Homo sapiens, UniProt Q5XXA6, DEL476-501, form not given)
Test: Automated whole-cell patch clamp (Qpatch) TMEM16A potentiator assay in FRT cells stably expressing human TMEM16A
Assay type: cell-based
Conditions: for % Potentiation @ 3.33 μM Avg: 3.33 μM solution of test compound, percentage increase of baseline TMEM16A current; for EC50: calculated EC50, Qpatch TMEM16A current at +70 mV
How it was run: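 Potentiation was read as the rise in peak +70 mV current over baseline (%), from cumulative 5-min additions of compound. Recordings used whole-cell automated patch of FRT cells stably carrying human TMEM16Aabc, with pipette Ca2+ buffered to give ~20% maximal current. EC50 and efficacy came from concentration-response fits.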

Sequence of human TMEM16A (TMEM16Aabc variant) (Q5XXA6 with tags, fused parts or gaps DEL476-501): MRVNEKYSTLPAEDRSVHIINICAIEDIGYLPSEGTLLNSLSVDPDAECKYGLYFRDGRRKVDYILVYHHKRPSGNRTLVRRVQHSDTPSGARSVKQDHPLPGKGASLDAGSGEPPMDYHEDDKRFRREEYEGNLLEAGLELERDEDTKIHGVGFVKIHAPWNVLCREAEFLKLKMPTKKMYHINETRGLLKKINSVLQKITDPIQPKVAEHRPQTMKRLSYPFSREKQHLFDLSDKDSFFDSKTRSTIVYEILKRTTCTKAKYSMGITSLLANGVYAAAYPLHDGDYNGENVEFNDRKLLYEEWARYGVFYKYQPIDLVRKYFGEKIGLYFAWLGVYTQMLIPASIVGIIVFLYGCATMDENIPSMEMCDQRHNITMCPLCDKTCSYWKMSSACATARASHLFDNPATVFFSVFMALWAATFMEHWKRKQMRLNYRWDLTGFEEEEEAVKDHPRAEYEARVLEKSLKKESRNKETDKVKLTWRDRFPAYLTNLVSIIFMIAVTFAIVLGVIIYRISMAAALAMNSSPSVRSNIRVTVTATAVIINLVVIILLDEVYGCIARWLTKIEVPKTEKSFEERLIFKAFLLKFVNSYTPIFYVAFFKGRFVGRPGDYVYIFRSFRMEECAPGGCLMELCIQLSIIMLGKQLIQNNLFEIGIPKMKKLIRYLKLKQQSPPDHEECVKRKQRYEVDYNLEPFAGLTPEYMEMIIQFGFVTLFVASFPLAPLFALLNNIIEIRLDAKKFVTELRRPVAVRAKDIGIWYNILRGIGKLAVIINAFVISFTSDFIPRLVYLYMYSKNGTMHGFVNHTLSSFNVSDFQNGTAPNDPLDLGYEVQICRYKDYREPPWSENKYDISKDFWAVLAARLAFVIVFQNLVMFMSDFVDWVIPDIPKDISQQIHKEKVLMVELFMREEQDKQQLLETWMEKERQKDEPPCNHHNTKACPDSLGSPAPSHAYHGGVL

Row | Compound | % Potentiation @ 3.33 μM Avg [%] | EC50 [µM]
1 | CCCC(C)(C)NC(=O)c1cccc(NC(=O)Cc2cc(Cl)ccc2O)c1 [Example 7.1, 3-[[2-(5-Chloro-2-hydroxy-phenyl)acetyl]amino]-N-(1,1-dimethylbutyl)benzamide] | 241 | 0.34
2 | CCCC(C)(C)NC(=O)c1cc(NC(=O)Cc2cc(Cl)ccc2O)ccn1 [Example 7.2, 4-[[2-(5-Chloro-2-hydroxy-phenyl)acetyl]amino]-N-(1,1-dimethylbutyl)pyridine-2-carboxamide] | 203 | 0.26
3 | O=C(Cc1cc(Cl)ccc1O)Nc1cccc(C(=O)NC2CCCCC2)c1 [Example 7.3, 3-[[2-(5-Chloro-2-hydroxy-phenyl)acetyl]amino]-N-cyclohexyl-benzamide] | 125 | 0.2
4 | O=C(Cc1cc(Cl)ccc1O)Nc1cccc(C(=O)NC2CCOCC2)c1 [Example 7.4, 3-[[2-(5-Chloro-2-hydroxy-phenyl)acetyl]amino]-N-tetrahydropyran-4-yl-benzamide] | 52 | 0.65
5 | CC(C)C(C)(C)NC(=O)c1cccc(NC(=O)Cc2cc(Cl)ccc2O)c1 [Example 7.5, 3-[[2-(5-Chloro-2-hydroxy-phenyl)acetyl]amino]-N-(1,1,2-trimethylpropyl)benzamide] | 239 | 0.28
6 | CC(C)C(C)(C)NC(=O)c1cc(NC(=O)Cc2cc(Cl)ccc2O)ccn1 [Example 7.6, 4-[[2-(5-Chloro-2-hydroxy-phenyl)acetyl]amino]-N-(1,1,2-trimethylpropyl)pyridine-2-carboxamide] | 285 | 0.1
7 | CC(C)NC(=O)c1cc(NC(=O)Cc2cc(Cl)ccc2O)ccn1 [Example 7.7, 4-[[2-(5-Chloro-2-hydroxy-phenyl)acetyl]amino]-N-isopropyl-pyridine-2-carboxamide] | 234 | 0.13
8 | CC1(NC(=O)c2cccc(NC(=O)Cc3cc(Cl)ccc3O)c2)CCOCC1 [Example 7.8, 3-[[2-(5-Chloro-2-hydroxy-phenyl)acetyl]amino]-N-(4-methyltetrahydropyran-4-yl)benzamide] | 231 | 0.92
9 | CC1(NC(=O)c2cc(NC(=O)Cc3cc(Cl)ccc3O)ccn2)CCOCC1 [Example 7.9, 4-[[2-(5-Chloro-2-hydroxy-phenyl)acetyl]amino]-N-(4-methyltetrahydropyran-4-yl)pyridine-2-carboxamide] | 288 | 0.23
10 | CC1(NC(=O)c2cccc(NC(=O)Cc3cc(Cl)ccc3O)c2)CCC1 [Example 7.10, 3-[[2-(5-Chloro-2-hydroxy-phenyl)acetyl]amino]-N-(1-methylcyclobutyl)benzamide] | 218 | 0.36
11 | O=C(Cc1cc(Cl)ccc1O)Nc1ccnc(C(=O)NC2CCOCC2)c1 [Example 7.11, 4-[[2-(5-Chloro-2-hydroxy-phenyl)acetyl]amino]-N-tetrahydropyran-4-yl-pyridine-2-carboxamide] | 167 | 0.32
12 | O=C(Cc1cc(Cl)ccc1O)Nc1ccnc(C(=O)N[C@H]2CC[C@@H](O)CC2)c1 [Example 7.12, 4-[2-(5-Chloro-2-hydroxyphenyl)acetamido]-N-[(1s,4s)-4-hydroxycyclohexyl]pyridine-2-carboxamide] | 101 | 2.11
13 | CCC(C)NC(=O)c1cc(NC(=O)Cc2cc(Cl)ccc2O)ccn1 (centres unmarked) [Example 7.13, 4-[[2-(5-Chloro-2-hydroxy-phenyl)acetyl]amino]-N-sec-butyl-pyridine-2-carboxamide] | 212 | 0.09
14 | CC(C)(O)C(C)(C)NC(=O)c1cc(NC(=O)Cc2cc(Cl)ccc2O)ccn1 [Example 7.14, 4-[[2-(5-Chloro-2-hydroxy-phenyl)acetyl]amino]-N-(2-hydroxy-1,1,2-trimethyl-propyl)pyridine-2-carboxamide] | 225 | 0.15
15 | O=C(Cc1cc(Cl)ccc1O)Nc1ccnc(C(=O)NC23CC(C2)C3)c1 [Example 7.15, N-(3-Bicyclo[1.1.1]pentanyl)-4-[[2-(5-chloro-2-hydroxy-phenyl)acetyl]amino]pyridine-2-carboxamide] | 230 | 0.05
16 | N#CC1(NC(=O)c2cc(NC(=O)Cc3cc(Cl)ccc3O)ccn2)CCC1 [Example 7.16, 4-[[2-(5-Chloro-2-hydroxy-phenyl)acetyl]amino]-N-(1-cyanocyclobutyl)pyridine-2-carboxamide] | 354 | 0.13
17 | CC(C)(C)OC(=O)N1CCCC(NC(=O)c2cccc(NC(=O)Cc3cc(Cl)ccc3O)c2)C1 (centres unmarked) [Example 8, tert-Butyl-3-[[3-[[2-(5-chloro-2-hydroxy-phenyl)acetyl]amino]benzoyl]amino] piperidine-1-carboxylate] | 88 | 3.02

Row | Compound | % Potentiation @ 3.33 μM Avg [%] | EC50 [µM]
18 | CC(C)(C)OC(=O)N1CCCC(NC(=O)c2cc(NC(=O)Cc3cc(Cl)ccc3O)ccn2)C1 (centres unmarked) [Example 8.1, tert-Butyl-3-[[4-[[2-(5-chloro-2-hydroxy-phenyl)acetyl]amino]pyridine-2-carbonyl]amino]piperidine-1-carboxylate] | 155 | 0.59
19 | CC1(NC(=O)c2cccc(NC(=O)Cc3cc(Cl)ccc3O)c2)CCN(C(=O)OC(C)(C)C)CC1 [Example 8.2, tert-Butyl 4-[[3-[[2-(5-chloro-2-hydroxy-phenyl)acetyl]amino]benzoyl]amino]-4-methyl-piperidine-1-carboxylate] | 169 | 1.96
20 | CC(C)(C)OC(=O)N1C[C@@H]2[C@H](C1)[C@H]2NC(=O)c1cc(NC(=O)Cc2cc(Cl)ccc2O)ccn1 [Example 8.3, tert-Butyl (1r,5s,6s)-6-{4-[2-(5-chloro-2-hydroxyphenyl)acetamido]pyridine-2-amido}-3-azabicyclo[3.1.0]hexane-3-carboxylate] | 238 | 0.23
21 | CC(C)(C)NC(=O)c1ccc(F)c(NC(=O)Cc2cc(Cl)ccc2O)c1 [Example 9, N-tert-Butyl-3-[[2-(5-chloro-2-hydroxy-phenyl)acetyl]amino]-4-fluoro-benzamide] | 149 | 0.23
22 | Cc1cc(NC(=O)Cc2cc(Cl)ccc2O)cc(C(=O)NC(C)(C)C)c1 [Example 9.1, N-tert-Butyl-3-[[2-(5-chloro-2-hydroxy-phenyl)acetyl]amino]-5-methyl-benzamide] | 77 | 4.62
23 | CCC(C)(C)NC(=O)c1cc(NC(=O)Cc2cc(Cl)ccc2O)ccn1 [Example 9.2, 4-[[2-(5-Chloro-2-hydroxy-phenyl)acetyl]amino]-N-(1,1-dimethylpropyl)pyridine-2-carboxamide] | 196 | 0.19
24 | CC(C)(C)NC(=O)c1cc(NC(=O)Cc2cc(C(C)(C)C)ccc2O)ccn1 [Example 10, N-tert-Butyl-4-[[2-(5-tert-butyl-2-hydroxy-phenyl)acetyl]amino]pyridine-2-carboxamide] | 250 | 0.22
25 | CC(C)(C)NC(=O)c1cc(NC(=O)Cc2cc(Cl)ccc2O)ccc1O [Example 11, N-tert-Butyl-5-[[2-(5-chloro-2-hydroxy-phenyl)acetyl]amino]-2-hydroxy-benzamide] | 76 | 0.9
26 | CC(C)(C)NC(=O)c1cccc(NC(=O)Cc2cc(C#N)ccc2O)c1 [Example 12, N-tert-Butyl-3-[[2-(5-cyano-2-hydroxy-phenyl)acetyl]amino] benzamide] | 112 | 1.76
27 | COC(=O)c1ccc(O)c(CC(=O)Nc2ccnc(C(=O)NC(C)(C)C)c2)c1 [Example 13, Methyl 3-[2-[[2-(tert-butylcarbamoyl)-4-pyridyl]amino]-2-oxo-ethyl]-4-hydroxy-benzoate] | 245 | 1
28 | CC(C)(C)NC(=O)c1ccc(O)c(NC(=O)Cc2cc(Cl)ccc2O)c1 [Example 14, N-tert-Butyl-3-[[2-(5-chloro-2-hydroxy-phenyl)acetyl]amino]-4-hydroxy-benzamide] | 58 | –
29 | Cc1ccc(O)c(CC(=O)Nc2ccnc(C(=O)NC(C)(C)C)c2)c1 [Example 15, N-tert-Butyl-4-[[2-(2-hydroxy-5-methyl-phenyl)acetyl]amino]pyridine-2-carboxamide] | 200 | 0.13
30 | COc1ccc(C(=O)NC(C)(C)C)cc1NC(=O)Cc1cc(Cl)ccc1O [Example 16, N-tert-Butyl-3-[[2-(5-chloro-2-hydroxy-phenyl)acetyl]amino]-4-methoxy-benzamide] | 63 | –
31 | CC(C)(C)NC(=O)c1cc(NC(=O)Cc2cc(Cl)ccc2O)ccc1F [Example 17, N-tert-Butyl-5-[[2-(5-chloro-2-hydroxy-phenyl)acetyl]amino]-2-fluoro-benzamide] | 173 | 1.49
32 | CC(C)(C)NC(=O)c1cc(F)cc(NC(=O)Cc2cc(Cl)ccc2O)c1 [Example 18, N-tert-Butyl-3-[[2-(5-chloro-2-hydroxy-phenyl)acetyl]amino]-5-fluoro-benzamide] | 405 | 0.45
33 | CC(C)(C)NC(=O)c1cc(NC(=O)Cc2ncccc2O)ccn1 [Example 19, N-tert-Butyl-4-[[2-(3-hydroxy-2-pyridyl)acetyl]amino]pyridine-2-carboxamide] | 57 | –
34 | CC(C)(C)NC(=O)c1cc(NC(=O)Cc2cc(F)ccc2O)ccn1 [Example 20, N-tert-Butyl-4-[[2-(5-fluoro-2-hydroxy-phenyl)acetyl]amino]pyridine-2-carboxamide] | 111 | 0.22
